Data as given in the supplement of paper PMC10290057.
Structures can show the parent of a compound that is named as a salt.

How the values were obtained:
[1] = test system: HCT116; test: AC50 cell viability (CellTiter-Glo); higher = less potent; settings: 48 h
[2] = test system: HCT116; test: efficacy (fitted maximal change in viability relative to DMSO control); higher = less cytotoxic (negative = loss of viability); settings: 48 h
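Wherever AC50 cell viability (CellTiter-Glo) is given: HCT116 colorectal carcinoma cells screened at five concentrations per compound, luminescent viability scaled between DMSO wells and empty wells on each plate, curves fitted per compound.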
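Wherever efficacy (fitted maximal change in viability relative to DMSO control) is given: Luminescence-based viability readout, five doses per compound, normalized against on-plate DMSO and empty-well controls, followed by dose-response curve fitting for every drug.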

Row | Structure (SMILES) | AC50 cell viability [1] | efficacy [2]
1 | C/C(=C\c1csc(C)n1)[C@@H]1C[C@@H]2O[C@]2(C)CCC[C@H](C)[C@H](O)[C@@H](C)C(=O)C(C)(C)[C@@H](O)CC(=O)N1 [Ixabepilone] | 0.0833 µM | -58.5%
2 | CCN(CC)CCNC(=O)c1ccc2nc(-c3ccccc3)c(-c3ccc(CN4CCC(n5c(=O)[nH]c6ccccc65)CC4)cc3)nc2c1 [Merck-22-6] | 8.33 µM | -99.8%
3 | COc1ccc(-c2ccc3c(N4CCOC[C@@H]4C)nc(N4CCOC[C@@H]4C)nc3n2)cc1CO [AZD-8055] | 0.295 µM | -51.6%
4 | CC(C)NC[C@@H](C(=O)N1CCN(c2ncnc3c2[C@H](C)C[C@H]3O)CC1)c1ccc(Cl)cc1 [Ipatasertib] | 13.2 µM | -96.8%
5 | Cc1cc2cc(Oc3ccnc(Nc4cccc(C[S+](=O)([O-])NCCN(C)C)c4)n3)ccc2[nH]1 [Sulfatinib] | 11.8 µM | -101%
6 | CC/1=C(\O)C(=O)\C=C2/C1=C\C=C3/[C@@]2(C)CC[C@@]4(C)[C@@H]5C[C@@](C)(CC[C@]5(C)CC[C@]34C)C(O)=O [Tripterin] | 3.32 µM | -98.9%
7 | Cc1ncc(-c2ccnc(Nc3ccc([S+](C)(=O)[O-])cc3)n2)n1C(C)C [AZD-5438] | 0.525 µM | -62.2%
8 | NC(=O)N1CCC(CC(=O)N2CCC([C@H]3c4ncc(Br)cc4CCc4cc(Cl)cc(Br)c43)CC2)CC1 [Lonafarnib] | 18.6 µM | -100%
9 | CN(CCO)C1CCN(c2ccc(Nc3ncc4c5ccnc(F)c5n(C5CCCC5)c4n3)nc2)CC1 [AM-5992] | 1.02 µM | -50%
10 | CCC(=C/[C@H](C)C/C=C/C(C)=C/[C@@H](C)C(=O)[C@@H](C)[C@H](O)[C@@H](C)C/C(C)=C/C(=O)O)/C=C/[C@@H]1OC(=O)C=C[C@@H]1C [Leptomycin B] | 0.00372 µM | -80.9%
11 | N[S+](=O)([O-])c1ccc(NC(=S)N2CCN(C/C=C/c3ccccc3)CC2)cc1 [LF3] | 2.95 µM | -42.2%
12 | CN1CCc2c(c3ccccc3n2Cc2ccc(C(=O)NO)cc2)C1 [Tubastatin A] | 10.5 µM | -93.8%
13 | CN(C)CC(=O)N1CCC(CC1)C2=CC=C(NC(=O)C3=NC(=C[NH]3)C#N)C(=C2)\C4=C\CCCC4 | 16.6 µM | -80.1%
14 | CC(C)C1=N[N](C\2=C1C(=O)N\C(=N2)CC3=CC=C(OCCO)C=C3)C4=C(Cl)C=CC=C4Cl | 0.0295 µM | -63.1%
15 | NC(=O)Nc1cc(-c2cccc(F)c2)sc1C(=O)N[C@H]1CCCNC1 [AZD-7762] | 0.833 µM | -101%
16 | Cc1c(C)c2c(c(C)c1O)CCC(C)(COc1ccc(CC3SC(=O)NC3=O)cc1)O2 (centres undefined) [Troglitazone] | 18.6 µM | -55.1%
17 | CCCCCCNC(=O)N1\C=C(F)/C(=O)NC1=O [Carmofur] | 4.17 µM | -61.6%
18 | NC(=O)c1cccc2cn(-c3ccc([C@@H]4CCCNC4)cc3)nc12 [Niraparib] | 18.6 µM | -92%
19 | c1ccc(-c2cc(CCC3CCNCC3)c3ccccc3n2)cc1 [Pipequaline] | 16.6 µM | -108%

Row | Structure (SMILES) | AC50 cell viability [1] | efficacy [2]
20 | CC\1=C(C(=O)N(\C=C1)C2=CC=C(C=C2)C3=NC=CO3)/C4=CC5=CN=C(N)N=C5C=C4 [AMG-25] | 1.66 µM | -47.6%
21 | O=C(NOCCO)c1ccc2cncn2c1Nc1ccc(I)cc1F [GDC-0623] | 11.8 µM | -43.9%
22 | COc1ccccc1[C@H](c1cccc2ccccc12)[C@@](C)(C#N)C(=O)N1CCC(c2cccc(C(F)(F)F)c2)CC1 | 0.833 µM | -39.8%
23 | O=C(NC1CC1)c1cccc(-c2ccc3c(NC(=O)C4CC4)n[nH]c3c2)c1 | 9.34 µM | -52.3%
24 | COc1c(C)c2c(c(O)c1C/C=C(\C)CCC(=O)O)C(=O)OC2 [Mycophenolic acid] | 2.09 µM | -82%
25 | COC1=CC=CC(=C1N)\C2=C\C(=O)C3=C(O2)C=CC=C3 | 16.6 µM | -52.9%
26 | COc1ccc([S+](=O)([O-])N(C(C)=O)c2ccccc2/C=C/c2cc[n+]([O-])cc2)cc1 [IVX-214] | 4.17 µM | -59.1%
27 | CCCC1OC2C[C@H]3[C@@H]4CCC5=CC(=O)C=C[C@]5(C)[C@H]4C(O)C[C@]3(C)[C@]2(C(=O)CO)O1 (some centres undefined) [Budesonide] | 18.6 µM | -52.3%
28 | Cc1nc2cnc3ccc(C#Cc4cccnc4)cc3c2n1-c1ccc(C(C)(C)C#N)cc1 [BAG-956] | 1.18 µM | -92.6%
29 | Cc1nc(N)ncc1-c1nc(N2CCOCC2)c2sc(C(C)(C)O)cc2n1 [GNE-490] | 2.63 µM | -66.6%
30 | O=C(Nc1ccc(OC(F)(F)F)cc1)c1sccc1NCc1ccnc2ccccc12 [OSI-930] | 10.5 µM | -77.4%
31 | Cc1cnc(-c2ccccc2C(C)C)nc1NCc1ccc(-n2ccnn2)cc1 [ML323] | 0.118 µM | -34.2%
32 | O=C(Nc1ccc([S+](=O)([O-])N2CCOCC2)cc1)c1cc(Cl)ccc1N[S+](=O)([O-])c1ccc(Cl)s1 [Ataciguat] | 23.5 µM | -76%
33 | Cn1cc(-c2ccc([S+](=O)([O-])n3ccc(/C=C/C(=O)Nc4ccccc4N)c3)cc2)cn1 [4SC-202] | 1.48 µM | -76.5%
34 | COc1ccc(Cl)c(Nc2ncnc3cc(OCC4CCN(C)CC4)c(OC)cc23)c1 | 23.5 µM | -93.6%
35 | Cc1cccc(CN2CCN(C(c3ccccc3)c3ccc(Cl)cc3)CC2)c1 (centres undefined) [Meclizine hydrochloride] | 20.9 µM | -43.1%
36 | C[C@H]1O[C@H]([C@H](O)[C@@H]1O)N2\C=C(F)/C(=O)NC2=O [Doxifluridine] | 7.42 µM | -68.1%
37 | C=CC[C@@H]1/C=C(\C)C[C@H](C)C[C@H](OC)[C@H]2O[C@@](O)(C(=O)C(=O)N3CCCC[C@H]3C(=O)O[C@H](/C(C)=C/[C@@H]3CC[C@@H](O)[C@H](OC)C3)[C@H](C)[C@@H](O)CC1=O)[C@H](C)C[C@@H]2OC [FK-506] | 23.5 µM | -91.2%
38 | O=C(NCCCNC(=O)c1cccnc1O)c1cc(-c2ccccc2)on1 [ML327] | 8.33 µM | -62.3%

Row | Structure (SMILES) | AC50 cell viability [1] | efficacy [2]
39 | O=C1c2c(O)ccc(O)c2C(=O)c2c(NCCNCCO)ccc(NCCNCCO)c21 [Mitoxantrone] | 1.18 µM | -91.4%
40 | CCCOc1ccc(CCc2nc3cc(-c4c(C)noc4C)ccc3n2CCN2CCOCC2)cc1 [PF-CBP1] | 14.8 µM | -94.5%
41 | CC(C)[C@]12O[C@H]1[C@@H]3O[C@@]34[C@@]5(C)CC\C6=C(COC6=O)/[C@@H]5C[C@@H]7O[C@]47C2=O [Triptonide] | 0.0295 µM | -59.2%
42 | COc1cc2nccc(Oc3ccc(NC(=O)C4(C(=O)Nc5ccc(F)cc5)CC4)cc3)c2cc1OC [Cabozantinib] | 7.42 µM | -65.4%
43 | COc1cc2nc(N3CCCN(C)CC3)nc(NC3CCN(Cc4ccccc4)CC3)c2cc1OC | 6.61 µM | -95.2%
44 | CC1Oc2cc(cnc2N)-c2c(nn(C)c2C#N)CN(C)C(=O)c2ccc(F)cc21 (centres undefined) [Lorlatinib] | 14.8 µM | -46.2%
45 | Cc1c(C(=O)Nc2cccc(C(F)(F)F)c2)cc(-c2ccccc2)n1CCCN1CCOCC1 | 20.9 µM | -75.8%
46 | CN[C@H]1CC[C@@H](c2ccc(Cl)c(Cl)c2)c2ccccc21 [Sertraline hydrochloride] | 20.9 µM | -98.8%
47 | CNc1nc(-c2ccc3c(N)n[nH]c3c2)cc(N2C[C@@H](C(=O)NC3CCCCC3)CC[C@H]2C)n1 | 18.6 µM | -110%
48 | C[C@]12CC[C@H]3[C@@H](CC(=C)\C4=C\C(=O)\C=C/[C@]34C)[C@@H]1CCC2=O [Exemestane] | 18.6 µM | -65%
49 | COC[C@H]1OC(=O)C2=COC3=C2[C@@]1(C)\C4=C(C5CCC(=O)[C@@]5(C)C[C@H]4OC(C)=O)/C3=O (some centres undefined) [17_-hydroxy Wortmannin] | 0.468 µM | -43.9%
50 | COc1cc2nccc(Oc3ccc(NC(=O)NC4CC4)c(Cl)c3)c2cc1C(N)=O [Lenvatinib] | 26.3 µM | -61.7%
51 | Cc1ccc(C(=O)Nc2cccc(C(F)(F)F)c2)cc1-c1ccc2nc(NCCN3CCOCC3)ncc2c1 [AMG-47a] | 2.35 µM | -101%
52 | COC(=O)Nc1ccc(-c2nc(N3CCOCC3)c3cnn(C4CCN(C(=O)OC)CC4)c3n2)cc1 [WYE-354] | 1.32 µM | -56.3%
53 | C[S+](=O)([O-])c1cccc(CNc2nc(Nc3ccc4c(c3)CCC(=O)N4)ncc2C(F)(F)F)c1 | 5.9 µM | -71.5%
54 | COC1=CC=C2C(=CC=NC2=C1)OC3=CC=C(NC(=O)\C4=C(C)\N(CC(C)(C)O)N(C4=O)C5=CC=CC=C5)C=C3F [AMG-1] | 11.8 µM | -67.9%
55 | Cc1cc(N2CCOCC2)ccc1Nc1nc(NC2CCCCC2)c2nc[nH]c2n1 | 6.61 µM | -59.2%
56 | COc1ccc(CC2c3cc(OC)c(OC)cc3CC[N+]2(C)CCC(=O)OCCCCCOC(=O)CC[N+]2(C)CCc3cc(OC)c(OC)cc3C2Cc2ccc(OC)c(OC)c2)cc1OC (centres undefined) [Atracurium besylate] | 23.5 µM | -77.8%
57 | COC/1=C/C=C2\C(=C/C1=O)[C@H](CCC3=CC(=C(OC)C(=C23)OC)OC)NC(C)=O [Colchicine] | 0.0661 µM | -59.9%
